The values below are quoted from earlier work in article PMC6856260 (Clinical Pharmacokinetics, 2019).

Read-outs that look alike come from different tables or passages of the source.

For series [1] the following is noted: post-dose fasting periods of 15, 30, 60 and 120 min; oral, co-formulated with SNAC.
The conditions of series [2]: co-formulated with 5-CNAC.

On to “semaglutide: oral semaglutide co-formulated with SNAC”, for which the “effect of increasing post-dose fasting period on exposure (in words)” value in series [1] was “increasing semaglutide exposure”.

As for salmon calcitonin, the “reduction of exposure of salmon calcitonin” value in series [2] (meal 10 min after oral dosing versus 60 min post-dose fasting) is “up to 30%”; in series [2] (meal 10 min after oral dosing versus 4 h post-dose fasting), 41%.
